Data taken from patent US20150368692A1, “ANALYSIS OF THE ESTERIFICATION LEVEL OF CEREBROSTEROL AS A TOOL FOR DIAGNOSIS AND/OR PROGNOSIS OF NEURODEGENERATION” (INBIOS S.R.L., priority 2013, published 2015).
One block for each molecule: values may come before it.

Experiments:
[1] = system: SH-SY5Y neuronal cells (neuroblastoma line), differentiated with retinoic acid; experiment: Survival of differentiated SH-SY5Y neuronal cells (Crystal Violet staining, absorbance at 595 nm); type: cell-based, human; settings: for cells survived after incubation: 5 h at 37° C./5% CO2 in DMEM and 0.5% HSA, then 16 h in fresh medium
Method: FIG. 2. Box A. Cells from the SH-SY5Y cell line were differentiated by incubation with 10 μM of retinoic acid in DMEM containing 0.5% foetal bovine serum, 1% Pen-Strep, 1% L-glutamine, 1% of a mixture of factors known as “N2 medium supplement”, essentially in accordance with a published procedure. The incubation was performed for 3 days at 37° C. in an atmosphere containing 5% CO2 (37° C./5% CO2). 7×10^3 cells were laid in each well of a microplate and then challenged with different concentrations of 24(S)OH—CNE and finally analysed in order to evaluate the survival of the cells, as described in Example 1. Each sample was analysed in three separate experiments. The data are expressed as means±SD (SD=standard deviation). Box B. 20 μM^3H-24(S)OH—CNE (300,000 dpm/mL) was incubated with 250 ng/mL purified LCAT and proteoliposomes containing 2 μM ApoA-I and 266 μM phosphatidylcholine (ApoA-I/PC) in DMEM with 0.5% HSA for various periods of time (from 1 to 6 h) at 37° C./5% CO2. After incubation, the esterified and non-esterified forms of oxysterol were extracted and analysed as described in Example 1. The level of esterification is indicated in terms of percentage of ^3H-24(S)OH-CE. Each sample was analysed in three separate experiments. The data are expressed as means±SD. Box C. Differentiated cells, as in the key of box A, were challenged with 20 μM ^3H-24(S)OH—CNE (300,000 dpm/mL) previously treated or untreated, as described for box B, with LCAT and ApoA-I/PC for 5 h. […] The culture medium was analysed in order to measure any unincorporated radioactive material, whereas the lysate was analysed in order to measure any incorporated radioactive material (expressed as % of the sum of incorporated radioactive material plus unincorporated radioactive material). […] Each sample was analysed in three separate experiments. The data are expressed as means±SD.
FIG. 3. […] Cellular survival after 5 h of incubation at 37° C./5% CO2, was evaluated as described in Example 1. Each sample was analysed in three separate experiments. The data are expressed as means±SD. […]

LCAT [2] = target: T1, LCAT (Homo sapiens, UniProt P04180); experiment: Activity of LCAT in esterifying 3H-24(S)OH-CNE after oxidative treatment of the enzyme; type: biochemical; settings: 1 mM SIN-1 as oxidant, 20 min pre-incubation, stopped with antioxidant mixture; 2 μM ApoA-I/266 μM phosphatidylcholine; control 19.11±0.49; P=2.4×10^−3
T1 sequence (P04180 25-440): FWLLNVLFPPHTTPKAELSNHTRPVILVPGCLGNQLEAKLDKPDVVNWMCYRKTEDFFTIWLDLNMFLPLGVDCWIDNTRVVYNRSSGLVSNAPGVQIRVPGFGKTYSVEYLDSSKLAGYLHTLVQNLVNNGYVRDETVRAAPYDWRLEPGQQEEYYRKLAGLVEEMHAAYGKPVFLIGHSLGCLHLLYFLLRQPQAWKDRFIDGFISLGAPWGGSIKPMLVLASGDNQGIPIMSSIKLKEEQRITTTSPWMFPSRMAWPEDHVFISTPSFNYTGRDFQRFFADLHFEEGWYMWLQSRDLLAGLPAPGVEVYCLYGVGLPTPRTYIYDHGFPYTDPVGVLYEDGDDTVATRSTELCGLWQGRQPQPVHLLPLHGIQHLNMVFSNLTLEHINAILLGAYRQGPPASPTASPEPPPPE
Method: FIG. 5. An outline of the process to which three samples have been subjected is shown at the top. At the bottom, the components of each sample are shown in a table. […] Purified LCAT (250 ng/mL) was pre-incubated and added to the culture medium for cellular incubation (containing ApoA-I/PC) as indicated in the table at the bottom. 1 mM Asc was used to separate the pre-incubation from the incubation in the processes to which the samples were subjected. Each sample was analysed in three separate experiments. The data, expressed as means±SD, were analysed using the Graph Pad Prism 3 program (Graph Pad Software; San Diego, Calif., USA) in order to determine the significance of the difference of B from A and C (P=10^−5).
The purified enzyme LCAT was treated with an oxidative stress system and was then incubated with 24(S)OH—CNE in order to evaluate the efficiency of esterification of this oxysterol. […] The measurement of the absorbance of ABTS^[…]+ (at 414 nm) […], at 30° C., oxidative species which effectively oxidise ABTS and that the addition of 1 mM Asc to the mixture prevents or blocks oxidation of the target. […]

LCAT [3] = target: T1, LCAT; experiment: Esterification of 3H-24(S)OH-CNE by purified LCAT with ApoA-I/PC proteoliposomes (TLC, liquid scintillation); type: biochemical; settings: 20 μM substrate, 250 ng/mL LCAT, proteoliposomes 2 μM ApoA-I/266 μM phosphatidylcholine, 5 h pre-incubation at 37° C./5% CO2
Method: FIG. 2. Box A. Cells from the SH-SY5Y cell line were differentiated by incubation with 10 μM of retinoic acid in DMEM containing 0.5% foetal bovine serum, 1% Pen-Strep, 1% L-glutamine, 1% of a mixture of factors known as “N2 medium supplement”, essentially in accordance with a published procedure. The incubation was performed for 3 days at 37° C. in an atmosphere containing 5% CO2 (37° C./5% CO2). 7×10^3 cells were laid in each well of a microplate and then challenged with different concentrations of 24(S)OH—CNE and finally analysed in order to evaluate the survival of the cells, as described in Example 1. Each sample was analysed in three separate experiments. The data are expressed as means±SD (SD=standard deviation). […] After incubation, the esterified and non-esterified forms of oxysterol were extracted and analysed as described in Example 1. […] Each sample was analysed in three separate experiments. The data are expressed as means±SD. […] The culture medium was analysed in order to measure any unincorporated radioactive material, whereas the lysate was analysed in order to measure any incorporated radioactive material (expressed as % of the sum of incorporated radioactive material plus unincorporated radioactive material). […] Each sample was analysed in three separate experiments. The data are expressed as means±SD. […]

[4] = system: SH-SY5Y neuronal cells (neuroblastoma line), differentiated with retinoic acid; experiment: Incorporation of 3H-24(S)OH-CNE in differentiated SH-SY5Y cells and its esterification in the cells; type: cell-based, human; settings: 4 h of incubation; for 3H-24(S)OH-CNE incorporated in the cultured cells: 20 μM
Method: FIG. 2. Box A. Cells from the SH-SY5Y cell line were differentiated by incubation with 10 μM of retinoic acid in DMEM containing 0.5% foetal bovine serum, 1% Pen-Strep, 1% L-glutamine, 1% of a mixture of factors known as “N2 medium supplement”, essentially in accordance with a published procedure. The incubation was performed for 3 days at 37° C. in an atmosphere containing 5% CO2 (37° C./5% CO2). 7×10^3 cells were laid in each well of a microplate and then challenged with different concentrations of 24(S)OH—CNE and finally analysed in order to evaluate the survival of the cells, as described in Example 1. Each sample was analysed in three separate experiments. The data are expressed as means±SD (SD=standard deviation). Box B. 20 μM^3H-24(S)OH—CNE (300,000 dpm/mL) was incubated with 250 ng/mL purified LCAT and proteoliposomes containing 2 μM ApoA-I and 266 μM phosphatidylcholine (ApoA-I/PC) in DMEM with 0.5% HSA for various periods of time (from 1 to 6 h) at 37° C./5% CO2. After incubation, the esterified and non-esterified forms of oxysterol were extracted and analysed as described in Example 1. The level of esterification is indicated in terms of percentage of ^3H-24(S)OH-CE. Each sample was analysed in three separate experiments. The data are expressed as means±SD. Box C. Differentiated cells, as in the key of box A, were challenged with 20 μM ^3H-24(S)OH—CNE (300,000 dpm/mL) previously treated or untreated, as described for box B, with LCAT and ApoA-I/PC for 5 h. After various incubation times (from 1 to 6 h), the cells were separated from the culture medium and lysed. The culture medium was analysed in order to measure any unincorporated radioactive material, whereas the lysate was analysed in order to measure any incorporated radioactive material (expressed as % of the sum of incorporated radioactive material plus unincorporated radioactive material). […] Each sample was analysed in three separate experiments. The data are expressed as means±SD.
In Step 1B, 20 μM of ^3H-24(S)OH—CNE (300,000 dpm/mL) was pre-incubated in culture medium (DMEM containing 0.5% HSA) in the presence or absence of 250 ng/mL LCAT, purified in accordance with a published procedure, and proteoliposomes containing ApoA-I and phosphatidylcholine (ApoA-I/PC), prepared in accordance with a published procedure omitting cholesterol. […] In particular, the amount of esterified ^3H-24(S)OH—CNE (that is to say ^3H-24(S)OH-CE) was measured as detailed hereinafter. […] The stationary phase regions harbouring ^3H-24(S)OH-CE (Rf=0.70-0.75) and ^3H-24(S)OH—CNE (Rf=0.25-0.35) were separately removed and then analysed for the radioactivity content thereof by liquid scintillation using the Packard TriCarb 2100TR counter (Global Medical Instrumentation, Ramsey, Mich., USA). […]

[5] = medium pre-incubated in the presence of LCAT and proteoliposomes
[6] = medium pre-incubated without LCAT and proteoliposomes

Molecule: CC(C)[C@@H](O)CC[C@@H](C)[C@H]1CC[C@H]2[C@@H]3CC=C4C[C@@H](O)CC[C@]4(C)[C@H]3CC[C@]12C [24(S)OH—CNE, cerebrosterol]
- cells survived after incubation ([1]; 10 μM 24(S)OH-CNE): 58%
- cells survived after incubation ([1]; 20 μM 24(S)OH-CNE): 43%

- LCAT activity of esterification of 24(S)OH-CNE (mean±SD) (LCAT [2]): 12.77 ± 0.78 nmol/h/mL
Molecule: [NH-]c1c[n+](N2CCOCC2)no1 [SIN-1, 3-morpholino-sidnonimine]

- 3H-24(S)OH-CNE found esterified by LCAT (mean±SD) (LCAT [3]): 49.3±2.8%
Molecule: [3H]C(C([3H])[C@@H](C)[C@H]1CC[C@H]2[C@@H]3CC=C4C[C@@H](O)CC[C@]4(C)[C@H]3CC[C@]12C)[C@H](O)C(C)C (stereo partly drawn) [^3H-24(S)OH—CNE]
- percentage of 3H-24(S)OH-CE in the cells [4, 5]: approximately 50%
- 3H-24(S)OH-CNE incorporated in the cultured cells [4, 5]: 6%
- percentage of 3H-24(S)OH-CE in the cells [4, 6]: approximately 60%
- 3H-24(S)OH-CNE incorporated in the cultured cells [4, 6]: 14%

B1: LCAT: lecithin-cholesterol acyltransferase, E.C. 2.3.1.43; purified enzyme, used at 250 ng/mL (protein, UniProt P04180 25-440, looked up)
Phosphatidylcholine-sterol …: FWLLNVLFPPHTTPKAELSNHTRPVILVPGCLGNQLEAKLDKPDVVNWMCYRKTEDFFTIWLDLNMFLPLGVDCWIDNTRVVYNRSSGLVSNAPGVQIRVPGFGKTYSVEYLDSSKLAGYLHTLVQNLVNNGYVRDETVRAAPYDWRLEPGQQEEYYRKLAGLVEEMHAAYGKPVFLIGHSLGCLHLLYFLLRQPQAWKDRFIDGFISLGAPWGGSIKPMLVLASGDNQGIPIMSSIKLKEEQRITTTSPWMFPSRMAWPEDHVFISTPSFNYTGRDFQRFFADLHFEEGWYMWLQSRDLLAGLPAPGVEVYCLYGVGLPTPRTYIYDHGFPYTDPVGVLYEDGDDTVATRSTELCGLWQGRQPQPVHLLPLHGIQHLNMVFSNLTLEHINAILLGAYRQGPPASPTASPEPPPPE
- effect of LCAT treatment of the culture medium on the toxic effect of 24(S)OH-CNE on the cells ([1]; 20 μM 24(S)OH-CNE pre-incubated 5 h with LCAT and proteoliposomes, cells 5 h, then 16 h fresh medium, versus control treatment without LCAT): significantly reduced the toxic effect
